Measurements as given in PubChem BioAssay AID330 (DTP/NCI, 2004).
Where “and” joins values, the source holds several entries; their conditions need not be identical. Equal values may be shown once. Toxic doses and inconclusive results are not listed. How the source made its calls: active means survival T/C of 150% or more; inactive means T/C below 125% in these data.

Tested on: P388 leukemia ip, CD2F1 mice, survival T/C
Assay: NCI In Vivo Anticancer Drug Screen. Data for tumor model P388 Leukemia (intraperitoneal) in CD2F1 (CDF1) mice
Settings: endpoint: median survival time, higher = longer survival
How it was run: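 Mice carrying the transplanted tumor received test compound or vehicle. Survival was recorded in each group, and the value is the treated-group measurement divided by that of the vehicle-treated control group.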

[1] = dose: 100.0 mg/kg/injection, schedule: Q04DX002 (ip), vehicle: Klucel (hydroxypropylcellulose) (HPC)
[2] = dose: 200.0 mg/kg/injection, schedule: Q04DX002 (ip), vehicle: Klucel (hydroxypropylcellulose) (HPC)
[3] = dose: 400.0 mg/kg/injection, schedule: Q04DX002 (ip), vehicle: Klucel (hydroxypropylcellulose) (HPC)
[4] = dose: 60.0 mg/kg/injection, schedule: Q01DX005 (ip), vehicle: saline
[5] = dose: 120.0 mg/kg/injection, schedule: Q01DX005 (ip), vehicle: saline
[6] = dose: 50.0 mg/kg/injection, schedule: Q01DX009 (ip), vehicle: saline
[7] = dose: 100.0 mg/kg/injection, schedule: Q01DX009 (ip), vehicle: saline
[8] = dose: 200.0 mg/kg/injection, schedule: Q01DX009 (ip), vehicle: saline
[9] = dose: 50.0 mg/kg/injection, schedule: Q01DX005 (ip), vehicle: saline with Tween-80
[10] = dose: 100.0 mg/kg/injection, schedule: Q01DX005 (ip), vehicle: saline with Tween-80
[11] = dose: 200.0 mg/kg/injection, schedule: Q01DX005 (ip), vehicle: saline with Tween-80
[12] = dose: 50.0 mg/kg/injection, schedule: Q01DX009 (ip), vehicle: saline with Tween-80
[13] = dose: 100.0 mg/kg/injection, schedule: Q04DX003 (ip), vehicle: saline with Tween-80
[14] = dose: 200.0 mg/kg/injection, schedule: Q04DX003 (ip), vehicle: saline with Tween-80
[15] = dose: 400.0 mg/kg/injection, schedule: Q04DX003 (ip), vehicle: saline with Tween-80

Measured: T/C

CC1CC2(c3ccccc3)C(=O)NC(=O)N=C2O1 (configuration not stated)
inactive: [1] 105 % of control | [2] 109 % of control | [3] 105 % of control

CS(=O)(=O)OCC(Br)C(Br)COS(C)(=O)=O (configuration not stated)
inactive: dose: 50.0 mg/kg/injection, schedule: Q01DX009 (ip), vehicle: Klucel (hydroxypropylcellulose) (HPC) 107 % of control | dose: 100.0 mg/kg/injection, schedule: Q01DX009 (ip), vehicle: Klucel (hydroxypropylcellulose) (HPC) 87 % of control

CCOC(=O)C1=C(C(C)=O)C(c2ccc(OC)c(OC)c2)C(C(C)=O)=C(C(=O)OCC)N1
inactive: [4] 102 % of control | [5] 100 % of control

CC1C(=O)OC23CC(C)(C)C4OC42C(C)CCC13O (configuration not stated)
inactive: dose: 0.37 mg/kg/injection, schedule: Q01DX009 (ip), vehicle: saline 93 % of control | dose: 0.75 mg/kg/injection, schedule: Q01DX009 (ip), vehicle: saline 99 % of control | dose: 1.5 mg/kg/injection, schedule: Q01DX009 (ip), vehicle: saline 97 % of control | dose: 3.0 mg/kg/injection, schedule: Q01DX009 (ip), vehicle: saline 99 % of control

COc1ccc(/C(Cc2ccccc2)=N/NS(=O)(=O)c2ccc(C)cc2)cc1
inactive: [6] 89 % of control | [7] 101 % of control | [8] 98 % of control

CCC[P+](C)(CCC#N)c1ccccc1 (configuration not stated)
inactive: dose: 12.5 mg/kg/injection, schedule: Q01DX009 (ip), vehicle: Klucel (hydroxypropylcellulose) (HPC) 108 % of control

C/C(Br)=C(\C(=O)O)S(=O)(=O)O
inactive: dose: 5.0 mg/kg/injection, schedule: Q01DX009 (ip), vehicle: saline with Tween-80 106 % of control | dose: 10.0 mg/kg/injection, schedule: Q01DX009 (ip), vehicle: saline with Tween-80 97 % of control | dose: 20.0 mg/kg/injection, schedule: Q01DX009 (ip), vehicle: saline with Tween-80 99 % of control

COc1cc(/C=C/c2ccccn2)oc(=O)c1
inactive: [1] 102 % of control | [2] 100 % of control | [3] 100 % of control

O=C(O)Cc1cnc[nH]1
inactive: dose: 6.25 mg/kg/injection, schedule: Q01DX009 (ip), vehicle: saline 100 % of control | dose: 12.5 mg/kg/injection, schedule: Q01DX009 (ip), vehicle: saline 106 % of control | dose: 25.0 mg/kg/injection, schedule: Q01DX009 (ip), vehicle: saline 97 % of control | [6] 99 % of control

COC(=O)c1csc(-c2ccc(CO)o2)n1
inactive: [9] 105 % of control | [10] 98 % of control | [11] 93 % of control

C=C(CCC(C(=O)O)C1C(O)CC2(C)C3=C(CCC12C)C1(C)CCC(OC(C)=O)C(C)(C)C1CC3)C(C)C (configuration not stated)
inactive: dose: 12.5 mg/kg/injection, schedule: Q01DX009 (ip), vehicle: saline with Tween-80 100 % of control | dose: 25.0 mg/kg/injection, schedule: Q01DX009 (ip), vehicle: saline with Tween-80 96 % of control | [12] 98 % of control

O=C(c1ccccc1)N1C=CC(=Cc2ccccc2)C=C1
inactive: dose: 1.56 mg/kg/injection, schedule: Q01DX009 (ip), vehicle: Klucel (hydroxypropylcellulose) (HPC) 102 % of control | dose: 3.12 mg/kg/injection, schedule: Q01DX009 (ip), vehicle: Klucel (hydroxypropylcellulose) (HPC) 106 % of control | dose: 6.25 mg/kg/injection, schedule: Q01DX009 (ip), vehicle: Klucel (hydroxypropylcellulose) (HPC) 101 % of control and 96 % of control

O=c1[nH]c(=O)c2c(Cl)cccc2[nH]1
inactive: [9] 93 % of control | [10] 100 % of control | [11] 91 % of control

CCOP(=O)(N=Nc1ccc(OC)nc1)OCC
inactive: dose: 12.5 mg/kg/injection, schedule: Q01DX005 (ip), vehicle: saline 102 % of control | dose: 25.0 mg/kg/injection, schedule: Q01DX005 (ip), vehicle: saline 109 % of control | dose: 50.0 mg/kg/injection, schedule: Q01DX005 (ip), vehicle: saline 100 % of control | dose: 100.0 mg/kg/injection, schedule: Q01DX005 (ip), vehicle: saline 108 % of control | dose: 1560.0 micrograms/kg/injection, schedule: Q01DX009 (ip), vehicle: saline 104 % of control | dose: 3125.0 micrograms/kg/injection, schedule: Q01DX009 (ip), vehicle: saline 102 % of control | dose: 6250.0 micrograms/kg/injection, schedule: Q01DX009 (ip), vehicle: saline 108 % of control | dose: 12500.0 micrograms/kg/injection, schedule: Q01DX009 (ip), vehicle: saline 106 % of control | dose: 25000.0 micrograms/kg/injection, schedule: Q01DX009 (ip), vehicle: saline 112 % of control

Cc1cc(NCCCCCCNc2cc(C)[n+](C)c3c(Cl)cccc23)c2cccc(Cl)c2[n+]1C
inactive: dose: 3.12 mg/kg/injection, schedule: Q01DX005 (ip), vehicle: suspension in saline 108 % of control | dose: 6.25 mg/kg/injection, schedule: Q01DX005 (ip), vehicle: suspension in saline 99 % of control | dose: 12.5 mg/kg/injection, schedule: Q01DX005 (ip), vehicle: suspension in saline 108 % of control

ICC1Cc2ccccc2O1 (configuration not stated)
inactive: [12] 99 % of control | dose: 100.0 mg/kg/injection, schedule: Q01DX009 (ip), vehicle: saline with Tween-80 101 % of control | dose: 200.0 mg/kg/injection, schedule: Q01DX009 (ip), vehicle: saline with Tween-80 103 % of control

CCCCN=C(N)N/N=C/c1c2ccccc2c(C)c2ccccc12
inactive: dose: 12.5 mg/kg/injection, schedule: Q04DX002 (ip), vehicle: saline with Tween-80 104 % of control | dose: 25.0 mg/kg/injection, schedule: Q04DX002 (ip), vehicle: saline with Tween-80 104 % of control | dose: 50.0 mg/kg/injection, schedule: Q04DX002 (ip), vehicle: saline with Tween-80 104 % of control

CCC1(O)CC(OC2CC(NC)C(OC3CC(O)C(OC4CC(O)C(O)C(C)O4)C(C)O3)C(C)O2)c2c(cc3c(c2O)C(=O)c2c(O)ccc(O)c2C3=O)C1C(=O)OC (configuration not stated)
inactive: dose: 3.13 mg/kg/injection, schedule: Q04DX003 (ip), vehicle: Klucel (hydroxypropylcellulose) (HPC) 115 % of control | dose: 6.25 mg/kg/injection, schedule: Q04DX003 (ip), vehicle: Klucel (hydroxypropylcellulose) (HPC) 118 % of control | dose: 12.5 mg/kg/injection, schedule: Q04DX003 (ip), vehicle: Klucel (hydroxypropylcellulose) (HPC) 115 % of control

Cc1cccc(Cl)c1NC(=O)CS
inactive: [13] 100 % of control | [14] 104 % of control | [15] 100 % of control

c1ccc(CNc2ncccn2)nc1
inactive: [9] 100 % of control | [10] 96 % of control | [11] 100 % of control

N#Cc1cnn(-c2cc(Cl)c(Cl)cc2Cl)c1N
inactive: [13] 99 % of control | [14] 103 % of control | [15] 111 % of control

COC(=O)C(CS[C@@H]1CCCC[C@@H]1O)NC(C)=O (some centres not stated)
inactive: dose: 50.0 mg/kg/injection, schedule: Q01DX005 (ip), vehicle: suspension in saline 100 % of control | dose: 100.0 mg/kg/injection, schedule: Q01DX005 (ip), vehicle: suspension in saline 99 % of control | dose: 200.0 mg/kg/injection, schedule: Q01DX005 (ip), vehicle: suspension in saline 95 % of control

COc1cccc(C2c3cc4c(cc3OC(O)C2C)OCO4)c1O (configuration not stated)
inactive: dose: 60.0 mg/kg/injection, schedule: Q01DX005 (ip), vehicle: Klucel (hydroxypropylcellulose) (HPC) 99 % of control | dose: 120.0 mg/kg/injection, schedule: Q01DX005 (ip), vehicle: Klucel (hydroxypropylcellulose) (HPC) 99 % of control | dose: 240.0 mg/kg/injection, schedule: Q01DX005 (ip), vehicle: Klucel (hydroxypropylcellulose) (HPC) 100 % of control

COc1cc2c(cc1OC)-c1cc(C)c3cc(OC)c(OC)cc3[n+]1CC2
inactive: dose: 50.0 mg/kg/injection, schedule: Q01DX009 (ip), vehicle: water 111 % of control | dose: 100.0 mg/kg/injection, schedule: Q01DX009 (ip), vehicle: water 110 % of control | dose: 200.0 mg/kg/injection, schedule: Q01DX009 (ip), vehicle: water 117 % of control

Cc1ncc(C[n+]2csc(CCO)c2C)c(N)n1
inactive: [6] 108 % of control | [7] 105 % of control | [8] 97 % of control

CNC(=O)NCc1cccnc1
inactive: [4] 107 % of control | [5] 103 % of control | dose: 240.0 mg/kg/injection, schedule: Q01DX005 (ip), vehicle: saline 99 % of control
